We go through seven compounds from patent US8394442B2, “Process for the preparation of a flavoring concentrate, and a flavoring concentrate” (SYMRISE AG, priority 2007, dated 2013).

Data set [1] in a line: log Pow: distribution coefficient between 1-octanol and water. Particulars: 1-octanol/water.
Source text: Log Pow*=log Pow*−x*P′(x)/log Pow Formula 2: • where log Pow is the decimal logarithm of the distribution coefficient of a substance between 1-octanol and water, • x is the resulting solvent proportion based on the total volume proportion, normalized as 1.0, and • P′(x) is the polarity parameter for the corresponding solvent for the solvent proportion x.
Data set [2] can be described thus: log Pow* calculated by Formula 2 from log Pow and the polarity parameter P′(x) of the ethanol/water mixture.
Where [3] appears, read: solvent ethanol, proportion 10%.
Where [4] appears, read: solvent ethanol, proportion 30%.
Where [5] appears, read: solvent ethanol, proportion 40%.
Where [6] appears, read: solvent ethanol, proportion 50%.
[7] abbreviates: solvent ethanol, proportion 60%.
Setting [8] is: solvent ethanol, proportion 70%.
[9] abbreviates: solvent ethanol, proportion 80%.
[10] abbreviates: solvent ethanol, proportion 90%.
Setting [11] is: solvent ethanol, proportion 100%.

Like-named read-outs stand apart in the source and are kept apart here.

In the case of `CCC/C=C/CO` [2E-hexenol], the “log Pow” value in data set [1] is recorded as 1.75. Besides, in data set [2] (solvent ethanol, proportion 2%), the “log Pow* (P′ 2%)” value is recorded as 1.64. Moreover, the “log Pow* (P′ 4%)” value in data set [2] (solvent ethanol, proportion 4%) is 1.53. In addition, the “log Pow* (P′ 6%)” value in data set [2] (solvent ethanol, proportion 6%) was 1.43. In data set [2] (solvent ethanol, proportion 8%), the “log Pow* (P′ 8%)” value is recorded as 1.33. In addition, the “log Pow* (P′ 10%)” value in data set [2] (setting [3]) was 1.24. Also, the “log Pow* (P′ 30%)” value in data set [2] (setting [4]) is on record as 0.51. Besides, in data set [2] (setting [5]), the “log Pow* (P′ 40%)” value is reported as 0.24. Besides, the “log Pow* (P′ 50%)” value in data set [2] (setting [6]) is reported as 0.02. The “log Pow* (P′ 60%)” value in data set [2] (setting [7]) is on record as −0.17. Further, the “log Pow* (P′ 70%)” value in data set [2] (setting [8]) is −0.33. The “log Pow* (P′ 80%)” value in data set [2] (setting [9]) is reported as −0.47. In addition, in data set [2] (setting [10]), the “log Pow* (P′ 90%)” value is −0.60. Also, the “log Pow* (P′ 100%)” value in data set [2] (setting [11]) is recorded as −0.71.
With `C=CC(C)(O)CCC=C(C)C` (centres unmarked) [Linalool], the “log Pow” value in data set [1] was 3.28. Besides, in data set [2], the “log Pow* (P′ 2%)” value was 3.22, the “log Pow* (P′ 4%)” value is 3.16, the “log Pow* (P′ 6%)” value is reported as 3.11 and the “log Pow* (P′ 8%)” value is reported as 3.06. Besides, in data set [2], the “log Pow* (P′ 10%)” value is 3.01, the “log Pow* (P′ 30%)” value is listed as 2.62, the “log Pow* (P′ 40%)” value is 2.48 and the “log Pow* (P′ 50%)” value is listed as 2.36. In data set [2], the “log Pow* (P′ 60%)” value is listed as 2.26, the “log Pow* (P′ 70%)” value is 2.17, the “log Pow* (P′ 80%)” value was 2.09 and the “log Pow* (P′ 90%)” value is 2.03. Also, in data set [2], the “log Pow* (P′ 100%)” value is 1.97.
Regarding `C=C(C)[C@@H]1CCC2=CC(=O)C[C@@H](C)[C@]2(C)C1` [Nootkatone], in data set [1], the “log Pow” value was 4.10. The “log Pow* (P′ 2%)” value in data set [2] (solvent ethanol, proportion 2%) is 4.05. Also, the “log Pow* (P′ 4%)” value in data set [2] (solvent ethanol, proportion 4%) is listed as 4.01. Further, the “log Pow* (P′ 6%)” value in data set [2] (solvent ethanol, proportion 6%) is 3.96. Besides, the “log Pow* (P′ 8%)” value in data set [2] (solvent ethanol, proportion 8%) is 3.92. In data set [2] (setting [3]), the “log Pow* (P′ 10%)” value is listed as 3.88. Also, the “log Pow* (P′ 30%)” value in data set [2] (setting [4]) is on record as 3.57. In data set [2] (setting [5]), the “log Pow* (P′ 40%)” value is reported as 3.46. In addition, in data set [2] (setting [6]), the “log Pow* (P′ 50%)” value is given as 3.36. Besides, in data set [2] (setting [7]), the “log Pow* (P′ 60%)” value is listed as 3.28. Further, the “log Pow* (P′ 70%)” value in data set [2] (setting [8]) is 3.21. The “log Pow* (P′ 80%)” value in data set [2] (setting [9]) is listed as 3.15. Also, the “log Pow* (P′ 90%)” value in data set [2] (setting [10]) is listed as 3.10. In addition, the “log Pow* (P′ 100%)” value in data set [2] (setting [11]) is listed as 3.05.
In the case of Ethyldimethylpyrazine, the “log Pow” value in data set [1] was determined as 1.60. In addition, in data set [2] (solvent ethanol, proportion 2%), the “log Pow* (P′ 2%)” value was 1.48. In addition, in data set [2] (solvent ethanol, proportion 4%), the “log Pow* (P′ 4%)” value was 1.36. Besides, in data set [2] (solvent ethanol, proportion 6%), the “log Pow* (P′ 6%)” value is reported as 1.25. Moreover, the “log Pow* (P′ 8%)” value in data set [2] (solvent ethanol, proportion 8%) was 1.14. Also, the “log Pow* (P′ 10%)” value in data set [2] (setting [3]) is 1.04. In data set [2] (setting [4]), the “log Pow* (P′ 30%)” value was 0.25. Moreover, the “log Pow* (P′ 40%)” value in data set [2] (setting [5]) is recorded as −0.05. Besides, the “log Pow* (P′ 50%)” value in data set [2] (setting [6]) was −0.29. Moreover, the “log Pow* (P′ 60%)” value in data set [2] (setting [7]) is on record as −0.50. In addition, the “log Pow* (P′ 70%)” value in data set [2] (setting [8]) was −0.68. For the same compound, the “log Pow* (P′ 80%)” value in data set [2] (setting [9]) is −0.83. For the same compound, in data set [2] (setting [10]), the “log Pow* (P′ 90%)” value is on record as −0.97. For the same compound, the “log Pow* (P′ 100%)” value in data set [2] (setting [11]) is on record as −1.09.
As to `CCCCCC(=O)OC` [Methylcapronate], the “log Pow” value in data set [1] is listed as 2.30. The “log Pow* (P′ 2%)” value in data set [2] (solvent ethanol, proportion 2%) was 2.21. The “log Pow* (P′ 4%)” value in data set [2] (solvent ethanol, proportion 4%) is listed as 2.13. Besides, in data set [2] (solvent ethanol, proportion 6%), the “log Pow* (P′ 6%)” value was 2.05. The “log Pow* (P′ 8%)” value in data set [2] (solvent ethanol, proportion 8%) is reported as 1.98. Also, the “log Pow* (P′ 10%)” value in data set [2] (setting [3]) was 1.91. The “log Pow* (P′ 30%)” value in data set [2] (setting [4]) was 1.36. Besides, in data set [2] (setting [5]), the “log Pow* (P′ 40%)” value is 1.15. For the same compound, the “log Pow* (P′ 50%)” value in data set [2] (setting [6]) is listed as 0.98. Moreover, the “log Pow* (P′ 60%)” value in data set [2] (setting [7]) was 0.84. Further, the “log Pow* (P′ 70%)” value in data set [2] (setting [8]) is 0.72. In data set [2] (setting [9]), the “log Pow* (P′ 80%)” value is listed as 0.61. In addition, the “log Pow* (P′ 90%)” value in data set [2] (setting [10]) was 0.51. Also, the “log Pow* (P′ 100%)” value in data set [2] (setting [11]) was 0.43.
Consider `CC/C=C\CC1C(=O)CCC1CC(=O)OC` (centres unmarked) [Methyl jasmonate], for which, in data set [1], the “log Pow” value is reported as 2.12. Further, in data set [2], the “log Pow* (P′ 2%)” value is on record as 2.03, the “log Pow* (P′ 4%)” value is on record as 1.94, the “log Pow* (P′ 6%)” value was 1.85 and the “log Pow* (P′ 8%)” value is on record as 1.77. Also, in data set [2], the “log Pow* (P′ 10%)” value is listed as 1.70, the “log Pow* (P′ 30%)” value was 1.10, the “log Pow* (P′ 40%)” value is 0.88 and the “log Pow* (P′ 50%)” value was 0.69. For the same compound, in data set [2], the “log Pow* (P′ 60%)” value is given as 0.54, the “log Pow* (P′ 70%)” value was 0.40, the “log Pow* (P′ 80%)” value is recorded as 0.29 and the “log Pow* (P′ 90%)” value is reported as 0.18. For the same compound, in data set [2], the “log Pow* (P′ 100%)” value is 0.09.
Regarding `CC(=O)C(C)=O` [Diacetyl], the “log Pow” value in data set [1] was −1.33. Moreover, in data set [2] (solvent ethanol, proportion 2%), the “log Pow* (P′ 2%)” value is recorded as −1.48. Besides, the “log Pow* (P′ 4%)” value in data set [2] (solvent ethanol, proportion 4%) is reported as −1.62. Moreover, in data set [2] (solvent ethanol, proportion 6%), the “log Pow* (P′ 6%)” value is −1.76. The “log Pow* (P′ 8%)” value in data set [2] (solvent ethanol, proportion 8%) is −1.88. For the same compound, the “log Pow* (P′ 10%)” value in data set [2] (setting [3]) was −2.00. For the same compound, the “log Pow* (P′ 30%)” value in data set [2] (setting [4]) is listed as −2.96. The “log Pow* (P′ 40%)” value in data set [2] (setting [5]) is reported as −3.31. Further, the “log Pow* (P′ 50%)” value in data set [2] (setting [6]) was −3.60. Moreover, the “log Pow* (P′ 60%)” value in data set [2] (setting [7]) is given as −3.85. In addition, in data set [2] (setting [8]), the “log Pow* (P′ 70%)” value was −4.07. Also, the “log Pow* (P′ 80%)” value in data set [2] (setting [9]) is listed as −4.25. In data set [2] (setting [10]), the “log Pow* (P′ 90%)” value is listed as −4.42. For the same compound, the “log Pow* (P′ 100%)” value in data set [2] (setting [11]) is listed as −4.56.
